ChEMBL document CHEMBL1139815, “Synthesis and characterization of a pegylated derivative of 3-(1,2,3,6-tetrahydro-pyridin-4yl)-1H-indole (IDT199): a high affinity SERT ligand for conjugation to quantum dots” (Bioorg Med Chem Lett, 2007)

Target: Sodium-dependent serotonin transporter (Homo sapiens, UniProt P31645)
Test: Displacement of [3H]serotonin from human SERT expressed in HeLa cells
Type: cell-based

Chain of Sodium-dependent serotonin transporter (P31645 whole entry): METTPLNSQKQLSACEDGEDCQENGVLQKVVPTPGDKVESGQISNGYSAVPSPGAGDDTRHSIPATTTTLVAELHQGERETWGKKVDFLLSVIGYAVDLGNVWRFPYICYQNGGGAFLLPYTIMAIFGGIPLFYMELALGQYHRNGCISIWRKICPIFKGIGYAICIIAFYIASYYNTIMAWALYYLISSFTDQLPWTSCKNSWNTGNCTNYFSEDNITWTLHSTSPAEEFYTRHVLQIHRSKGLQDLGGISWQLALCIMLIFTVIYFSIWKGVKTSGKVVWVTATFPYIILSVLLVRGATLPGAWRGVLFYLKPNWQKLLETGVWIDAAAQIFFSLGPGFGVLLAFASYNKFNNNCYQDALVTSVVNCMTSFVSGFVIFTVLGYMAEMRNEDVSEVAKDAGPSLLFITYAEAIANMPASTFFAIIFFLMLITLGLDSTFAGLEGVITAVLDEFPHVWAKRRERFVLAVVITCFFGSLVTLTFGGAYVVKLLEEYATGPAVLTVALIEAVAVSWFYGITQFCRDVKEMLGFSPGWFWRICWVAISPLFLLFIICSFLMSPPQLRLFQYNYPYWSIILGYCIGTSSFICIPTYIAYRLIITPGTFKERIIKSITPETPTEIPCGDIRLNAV

IC50: 25 nM
Compound: NCCCCCCCCCCCN1CCC(c2c[nH]c3ccccc23)CC1
